Results published in patent US5204338A, “Oxalylamino acid derivatives and their use as medicaments for inhibiting proline hydroxylase” (Hoechst Aktiengesellschaft, priority 1990, dated 1993).
Structures can show the parent of a compound that is named as a salt.

Assays:
calvaria culture = test: calvaria culture: reduction of the hydroxyproline/proline quotients in metabolic labeling with ^14 C-proline; format: cell-based; details: 50% reduction of the hydroxyproline/proline quotients in metabolic labeling with ^14 C-proline; esters
Description: The inhibitory activity can also be determined in cell or tissue culture. To do this, fibroblasts or other collagen-producing cells or calvaria or other collagen-producing organs can be employed. The inhibitory activity of substances according to the invention in calvaria culture is collated in Table 3. The concentration is indicated which leads to a 50% reduction of the hydroxyproline/proline quotients in metabolic labeling with ^14 C-proline (IC50).

prolyl hydroxylase = prolyl hydroxylase (Homo sapiens, UniProt P13674); test: enzyme test: hydroxylation of underhydroxylated collagen with prolyl hydroxylase in the presence of iron(II) ions, α-keto glutarate and ascorbate; format: biochemical; details: concentration which leads to an 80% inhibition of enzyme activity (the value is indicated as Ki); salts
Chain of prolyl hydroxylase (P13674 18-534): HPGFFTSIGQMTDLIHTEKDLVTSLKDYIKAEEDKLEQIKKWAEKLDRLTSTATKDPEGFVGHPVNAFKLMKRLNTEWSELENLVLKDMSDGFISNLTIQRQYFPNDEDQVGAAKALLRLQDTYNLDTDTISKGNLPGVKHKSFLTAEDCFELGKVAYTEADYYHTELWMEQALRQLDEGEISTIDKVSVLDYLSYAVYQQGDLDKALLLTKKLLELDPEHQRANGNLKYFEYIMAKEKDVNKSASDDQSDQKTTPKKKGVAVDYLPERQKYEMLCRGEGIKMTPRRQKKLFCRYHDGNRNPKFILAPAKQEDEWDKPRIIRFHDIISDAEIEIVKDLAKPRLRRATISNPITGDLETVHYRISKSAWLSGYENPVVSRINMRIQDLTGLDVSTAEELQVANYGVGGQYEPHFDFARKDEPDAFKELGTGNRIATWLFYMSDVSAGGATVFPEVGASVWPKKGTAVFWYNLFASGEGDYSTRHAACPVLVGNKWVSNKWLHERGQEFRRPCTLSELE
Chain of prolyl hydroxylase (P07237 18-508 partner): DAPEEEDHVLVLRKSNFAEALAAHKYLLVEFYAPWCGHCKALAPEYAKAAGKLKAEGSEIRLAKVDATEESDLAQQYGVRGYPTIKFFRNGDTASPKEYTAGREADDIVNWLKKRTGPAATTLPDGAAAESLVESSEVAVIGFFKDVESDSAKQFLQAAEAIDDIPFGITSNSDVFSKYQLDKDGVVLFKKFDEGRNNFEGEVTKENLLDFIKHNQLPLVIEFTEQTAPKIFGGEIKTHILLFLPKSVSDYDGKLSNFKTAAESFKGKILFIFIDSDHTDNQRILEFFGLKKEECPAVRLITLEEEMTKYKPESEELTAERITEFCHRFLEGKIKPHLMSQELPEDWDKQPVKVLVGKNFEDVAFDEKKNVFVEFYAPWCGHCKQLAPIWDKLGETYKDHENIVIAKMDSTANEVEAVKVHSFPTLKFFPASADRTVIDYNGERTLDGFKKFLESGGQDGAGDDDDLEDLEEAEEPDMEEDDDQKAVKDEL

[1] = system: Clq biosynthesis of macrophages; details: W. Muller et al., FEBS Lett. 90, 218 (1978); cited from earlier work

Row | IC50 (calvaria culture) | Ki (prolyl hydroxylase) | SMILES | also measured
1 | 350 µM |  | COC(=O)C(=O)N[C@@H](C)C(=O)OC [Example 1, (N-Oxalyl)-L-alanine dimethyl ester] | 
2 | 2 µM |  | COC(=O)CNC(=O)C(=O)OC [Example 3, (N-Oxalyl)-L-glycine dimethyl ester] | 
3 |  | 10 µM | O=C(O)CNC(=O)C(=O)O [Example 10, (N-Oxalyl)-L-glycine dipotassium salt] | 
4 |  | 40 µM | C[C@H](NC(=O)C(=O)O)C(=O)O [dipotassium salt] | 
5 |  |  | c1ccc(-c2ccccn2)nc1 [α, α-dipyridyl] | inhibition of Clq biosynthesis [1]: inhibition of Clq biosynthesis of macrophages
